Measured values from patent US11911628B2, “Electrostatic drug delivery” (NANO HESGARSAZAN SALAMAT ARYA INCUBATION CENTER FOR MEDICAL …, priority 2019, dated 2024).
Entries after “also recorded” stand apart in the source; their conditions may differ.

Tested on: MC4L2 mice tumor
Assay: MC4L2 mice tumor treated with drug with or without electrostatic field, tumor followed by sonography
Format: in vivo
Settings: for reduction in tumor volume: without electrostatic field
Procedure: Here, three injection periods of Cisplatin were carried out every 3 days for a group of mice having a MC4L2 mice tumor as an example of triple-positive breast cancer. About 20 mg/kg of Cisplatin was applied for a Control sample with a MC4L2 mice tumor without applying an electrostatic field. In each period, about 5 mg/kg of Cisplatin was applied for a sample mouse No. 1 with a MC4L2 mice tumor, and then followed by applying an electrostatic field with an intensity in a range of −60 V to −120 V according to exemplary method 100 or exemplary method 110, described hereinabove, utilizing a conductive patch similar to electrically conductive element 304 on mice skin near the MC4L2 tumor site, and applying direct current (DC) electrostatic field utilizing a Van de Graaff device.
All sonography images were taken after about 10 days of treatments, and all drug injections were done every about 3 days.

SMILES	tumor after treatment (sonography) (about 1 mg/kg Doxorubicin per period, then DC electrostatic field 60 V to 120 V via conductive patch, four periods every 3 days)	reduction in tumor volume (about 10 mg/kg Doxorubicin, sonography after about 10 days)	tumor after treatment (sonography) (about 5 mg/kg Cisplatin per period, then DC electrostatic field -60 V to -120 V via conductive patch, three periods every 3 days)	reduction in tumor volume (about 20 mg/kg Cisplatin, injections every 3 days, sonography)
COc1cccc2c1C(=O)c1c(O)c3c(c(O)c1C2=O)C[C@@](O)(C(=O)CO)C[C@@H]3O[C@H]1C[C@H](N)[C@H](O)[C@H](C)O1 [Doxorubicin]	no observable trace of tumor; also recorded: removed completely	about 75%		
N.N.[Cl][Pt][Cl] [Cisplatin]			no observable trace of tumor; also recorded: removed completely	about 60%
